This test addresses T1, human PKCθ full length enzyme (Homo sapiens, UniProt Q04759).
T1 construct: human PKCθ full length enzyme (Panvera Cat# P2996); purchased Panvera P2996
The test is described as follows: PKCθ IMAP assay (fluorescence polarization). It counts as biochemical. Particulars: human PKCθ full length enzyme, IMAP; average value; read-out: IC50 PKCθ IMAP. As for the experimental part:
The reaction buffer was prepared by diluting the 5× stock reaction buffer and adding DTT to obtain a concentration of 3.0 mM. […] The final concentration of compound was 2× and 10% DMSO. DMSO was added to the rest of the master mix to increase the concentration to 10%. 10 μl of the master mix containing 10% DMSO was added to the rest of the wells on the plate except the 2nd column. 20 μl was transferred from the first column to the 2nd column. The compounds were serially diluted in 2:1 ratio starting from the 2nd column. A 2× ([…]) PKCθ solution was made in the reaction buffer. 10 μl of the PKCθ solution was added to every well to achieve these final concentrations: PKCθ—1 nM; ATP—6 μM; peptide—100 nM; DMSO—5%. Samples were incubated for 25 minutes at room temperature. The binding reagent was prepared by diluting the beads in 1× binding buffer to 800:1. 50 μl of the binding reagent was added to every well and incubated for 20 minutes. FP was measured using Envision2100 (PerkinElmer Life Sciences). Wells with no ATPs and wells with no enzymes were used as controls.
(Polarisation of emitted light reports the rotation of a fluorescent probe.)

The term IC50 denotes the concentration needed to halve the response being measured.

T1 sequence (Q04759 whole entry): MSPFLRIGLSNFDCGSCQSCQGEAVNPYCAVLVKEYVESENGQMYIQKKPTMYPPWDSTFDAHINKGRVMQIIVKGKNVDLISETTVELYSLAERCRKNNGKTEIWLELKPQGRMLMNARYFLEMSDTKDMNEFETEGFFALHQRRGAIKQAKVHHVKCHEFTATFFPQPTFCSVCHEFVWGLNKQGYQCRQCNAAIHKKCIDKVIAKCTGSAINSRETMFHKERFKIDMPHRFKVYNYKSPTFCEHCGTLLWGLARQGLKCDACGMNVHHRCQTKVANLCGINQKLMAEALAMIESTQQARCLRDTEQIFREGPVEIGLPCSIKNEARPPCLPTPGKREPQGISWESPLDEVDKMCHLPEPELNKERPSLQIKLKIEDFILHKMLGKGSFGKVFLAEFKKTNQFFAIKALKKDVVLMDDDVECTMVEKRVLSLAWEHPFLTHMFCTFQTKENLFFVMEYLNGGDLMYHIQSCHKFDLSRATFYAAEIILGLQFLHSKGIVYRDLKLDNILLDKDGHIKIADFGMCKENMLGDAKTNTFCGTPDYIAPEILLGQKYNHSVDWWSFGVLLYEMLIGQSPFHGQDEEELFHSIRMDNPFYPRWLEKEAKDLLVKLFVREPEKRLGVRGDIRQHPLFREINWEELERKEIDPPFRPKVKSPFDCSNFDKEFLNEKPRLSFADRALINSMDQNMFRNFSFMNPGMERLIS

On to `COCCNCCOc1cc(-c2cncc(C#N)c2Nc2ccc3[nH]ccc3c2)ccc1OC` [Compound 182, 4-(1H-indol-5-ylamino)-5-(4-methoxy-3-{2-[(2-methoxyethyl)amino]ethoxy}phenyl)nicotinonitrile], for which the IC50 was determined as 120 nM.

As to `COc1ccc(-c2cncc(C#N)c2Nc2ccc3[nH]ccc3c2)cc1OCCNc1nnc(C)s1` [Compound 183, 4-(1H-indol-5-ylamino)-5-(4-methoxy-3-{2-[(5-methyl-1,3,4-thiadiazol-2-yl)amino]ethoxy}phenyl)nicotinonitrile], the IC50 turned out to be 70 nM.

Consider `CN1CCN(Cc2ccc(-c3cccc(-c4cncc(C#N)c4Nc4ccc5[nH]ccc5c4)c3)s2)CC1` [Compound 184, 4-(1H-indol-5-ylamino)-5-(3-{5-[(4-methylpiperazin-1-yl)methyl]-2-thienyl}phenyl)nicotinonitrile], for which the IC50 worked out at 260 nM.

Consider `N#Cc1cncc(-c2cccc(-c3ccc(CN4CCOCC4)s3)c2)c1Nc1ccc2[nH]ccc2c1` [Compound 185, 4-(1H-indol-5-ylamino)-5-{3-[5-(morpholin-4-ylmethyl)-2-thienyl]phenyl}nicotinonitrile], for which the IC50 worked out at 500 nM.

Turning to `N#Cc1cncc(-c2cccc(-c3ccc(CN4CCCCC4)s3)c2)c1Nc1ccc2[nH]ccc2c1` [Compound 186, 4-(1H-indol-5-ylamino)-5-{3-[5-(piperidin-1-ylmethyl)-2-thienyl]phenyl}nicotinonitrile], the IC50 was 140 nM.

With `CN(C)Cc1ccc(-c2cccc(-c3cncc(C#N)c3Nc3ccc4[nH]ccc4c3)c2)s1` [Compound 187, 5-(3-{5-[(dimethylamino)methyl]-2-thienyl}phenyl)-4-(1H-indol-5-ylamino)nicotinonitrile], the IC50 is 110 nM.

As to `COc1ccc(-c2cncc(C#N)c2Nc2ccc3[nH]ccc3c2)cc1Br` [Compound 188, 5-(3-bromo-4-methoxyphenyl)-4-(1H-indol-5-ylamino)nicotinonitrile], the IC50 was found to be 10 nM.

As for `COc1ccc(-c2cncc(C#N)c2Nc2ccc3[nH]ccc3c2)cc1-c1cccs1` [Compound 189, 4-(1H-indol-5-ylamino)-5-[4-methoxy-3-(2-thienyl)phenyl]nicotinonitrile], the IC50 worked out at 30 nM.

As for `COc1ccc(-c2cncc(C#N)c2Nc2ccc3[nH]ccc3c2)cc1-c1ccc(Cl)cc1` [Compound 190, 5-(4′-chloro-6-methoxybiphenyl-3-yl)-4-(1H-indol-5-ylamino)nicotinonitrile], the IC50 was found to be 180 nM.

As for `COc1ccc(-c2cncc(C#N)c2Nc2ccc3[nH]ccc3c2)cc1-c1cccc(Cl)c1` [Compound 191, 5-(3′-chloro-6-methoxybiphenyl-3-yl)-4-(1H-indol-5-ylamino)nicotinonitrile], the IC50 came to 320 nM.

In the case of `COc1ccc(-c2cncc(C#N)c2Nc2ccc3[nH]ccc3c2)cc1-c1ccc(C(=O)NC2CCCC2)cc1` [Compound 192, 5′-[5-cyano-4-(1H-indol-5-ylamino)pyridin-3-yl]-N-cyclopentyl-2′-methoxybiphenyl-4-carboxamide], the IC50 amounted to 280 nM.

Take `COc1ccc(-c2cncc(C#N)c2Nc2ccc3[nH]ccc3c2)cc1-c1ccccc1Cl` [Compound 193, 5-(2′-chloro-6-methoxybiphenyl-3-yl)-4-(1H-indol-5-ylamino)nicotinonitrile]: the IC50 came out at 250 nM.

For `N#Cc1cncc(-c2ccc(OCc3ccccc3)cc2)c1Nc1ccc2[nH]ccc2c1` [Compound 195, 5-[4-(benzyloxy)phenyl]-4-(1H-indol-5-ylamino)nicotinonitrile], the IC50 turned out to be 250 nM.

Regarding `CNC(=O)c1ccc(-c2cccc(-c3cncc(C#N)c3Nc3ccc4[nH]ccc4c3)c2)cc1` [Compound 196, 3′-[5-cyano-4-(1H-indol-5-ylamino)pyridin-3-yl]-N-methylbiphenyl-4-carboxamide], the IC50 was 460 nM.

Regarding `CCCCNC(=O)c1ccc(-c2cccc(-c3cncc(C#N)c3Nc3ccc4[nH]ccc4c3)c2)cc1` [Compound 197, N-butyl-3′-[5-cyano-4-(1H-indol-5-ylamino)pyridin-3-yl]biphenyl-4-carboxamide], the IC50 was determined as 190 nM.

In the case of `CCC(CC)NC(=O)c1ccc(-c2cccc(-c3cncc(C#N)c3Nc3ccc4[nH]ccc4c3)c2)cc1` [Compound 198, 3′-[5-cyano-4-(1H-indol-5-ylamino)pyridin-3-yl]-N-(1-ethylpropyl)biphenyl-4-carboxamide], the IC50 is 330 nM.

Consider `N#Cc1cncc(-c2cccc(-c3ccc(C(=O)NCCO)cc3)c2)c1Nc1ccc2[nH]ccc2c1` [Compound 199, 3′-[5-cyano-4-(1H-indol-5-ylamino)pyridin-3-yl]-N-(2-hydroxyethyl)biphenyl-4-carboxamide], for which the IC50 was 1300 nM.

For the compound `COCCNC(=O)c1ccc(-c2cccc(-c3cncc(C#N)c3Nc3ccc4[nH]ccc4c3)c2)cc1` [Compound 200, 3′-[5-cyano-4-(1H-indol-5-ylamino)pyridin-3-yl]-N-(2-methoxyethyl)biphenyl-4-carboxamide], the IC50 came out at 190 nM.

Regarding `N#Cc1cncc(-c2cccc(-c3ccc(C(=O)NC4CC4)cc3)c2)c1Nc1ccc2[nH]ccc2c1` [Compound 201, 3′-[5-cyano-4-(1H-indol-5-ylamino)pyridin-3-yl]-N-cyclopropylbiphenyl-4-carboxamide], the IC50 turned out to be 300 nM.

Turning to `N#Cc1cncc(-c2cccc(-c3ccc(C(=O)NC4CCCCC4)cc3)c2)c1Nc1ccc2[nH]ccc2c1` [Compound 202, 3′-[5-cyano-4-(1H-indol-5-ylamino)pyridin-3-yl]-N-cyclohexylbiphenyl-4-carboxamide], the IC50 is 340 nM.

With `N#Cc1cncc(-c2cccc(-c3ccc(C(=O)NCCN4CCCC4)cc3)c2)c1Nc1ccc2[nH]ccc2c1` [Compound 203, 3′-[5-cyano-4-(1H-indol-5-ylamino)pyridin-3-yl]-N-(2-pyrrolidin-1-ylethyl)biphenyl-4-carboxamide], the IC50 was 290 nM.

Consider `N#Cc1cncc(-c2cccc(-c3ccc(C(=O)N4CCCC4)cc3)c2)c1Nc1ccc2[nH]ccc2c1` [Compound 205, 4-(1H-indol-5-ylamino)-5-[4′-(pyrrolidin-1-ylcarbonyl)biphenyl-3-yl]nicotinonitrile], for which the IC50 was 510 nM.

`N#Cc1cncc(-c2cccc(-c3ccc(C(=O)NCCCCO)cc3)c2)c1Nc1ccc2[nH]ccc2c1` [Compound 209, 3′-[5-cyano-4-(1H-indol-5-ylamino)pyridin-3-yl]-N-(4-hydroxybutyl)biphenyl-4-carboxamide]: the IC50 came out at 280 nM.

As to `N#Cc1cncc(-c2cccc(-c3ccc(C(=O)NCCCO)cc3)c2)c1Nc1ccc2[nH]ccc2c1` [Compound 210, 3′-[5-cyano-4-(1H-indol-5-ylamino)pyridin-3-yl]-N-(3-hydroxypropyl)biphenyl-4-carboxamide], the IC50 was found to be 2580 nM.

On to `CNCCNC(=O)c1ccc(-c2cccc(-c3cncc(C#N)c3Nc3ccc4[nH]ccc4c3)c2)cc1` [Compound 211, 3′-[5-cyano-4-(1H-indol-5-ylamino)pyridin-3-yl]-N-[2-(methylamino)ethyl]biphenyl-4-carboxamide], for which the IC50 was 330 nM.

Turning to `N#Cc1cncc(-c2cccc(-c3ccc(C(=O)NCc4ccccn4)cc3)c2)c1Nc1ccc2[nH]ccc2c1` [Compound 212, 3′-[5-cyano-4-(1H-indol-5-ylamino)pyridin-3-yl]-N-(pyridin-2-ylmethyl)biphenyl-4-carboxamide], the IC50 came to 590 nM.

(Values after patent US7781591B2, “Substituted 3-cyanopyridines as protein kinase inhibitors” (Wyeth LLC, priority 2006, dated 2010).)
